36 molecules from patent publication US10233173B2, “Substituted 1,2,3-triazoles as NR2B-selective NMDA modulators” (JANSSEN PHARMACEUTICA NV, priority 2016, dated 2019) can be followed below.

human GluN1/GluN2B NMDA receptors, sequence (Q13224 27-1484, other chains not shown): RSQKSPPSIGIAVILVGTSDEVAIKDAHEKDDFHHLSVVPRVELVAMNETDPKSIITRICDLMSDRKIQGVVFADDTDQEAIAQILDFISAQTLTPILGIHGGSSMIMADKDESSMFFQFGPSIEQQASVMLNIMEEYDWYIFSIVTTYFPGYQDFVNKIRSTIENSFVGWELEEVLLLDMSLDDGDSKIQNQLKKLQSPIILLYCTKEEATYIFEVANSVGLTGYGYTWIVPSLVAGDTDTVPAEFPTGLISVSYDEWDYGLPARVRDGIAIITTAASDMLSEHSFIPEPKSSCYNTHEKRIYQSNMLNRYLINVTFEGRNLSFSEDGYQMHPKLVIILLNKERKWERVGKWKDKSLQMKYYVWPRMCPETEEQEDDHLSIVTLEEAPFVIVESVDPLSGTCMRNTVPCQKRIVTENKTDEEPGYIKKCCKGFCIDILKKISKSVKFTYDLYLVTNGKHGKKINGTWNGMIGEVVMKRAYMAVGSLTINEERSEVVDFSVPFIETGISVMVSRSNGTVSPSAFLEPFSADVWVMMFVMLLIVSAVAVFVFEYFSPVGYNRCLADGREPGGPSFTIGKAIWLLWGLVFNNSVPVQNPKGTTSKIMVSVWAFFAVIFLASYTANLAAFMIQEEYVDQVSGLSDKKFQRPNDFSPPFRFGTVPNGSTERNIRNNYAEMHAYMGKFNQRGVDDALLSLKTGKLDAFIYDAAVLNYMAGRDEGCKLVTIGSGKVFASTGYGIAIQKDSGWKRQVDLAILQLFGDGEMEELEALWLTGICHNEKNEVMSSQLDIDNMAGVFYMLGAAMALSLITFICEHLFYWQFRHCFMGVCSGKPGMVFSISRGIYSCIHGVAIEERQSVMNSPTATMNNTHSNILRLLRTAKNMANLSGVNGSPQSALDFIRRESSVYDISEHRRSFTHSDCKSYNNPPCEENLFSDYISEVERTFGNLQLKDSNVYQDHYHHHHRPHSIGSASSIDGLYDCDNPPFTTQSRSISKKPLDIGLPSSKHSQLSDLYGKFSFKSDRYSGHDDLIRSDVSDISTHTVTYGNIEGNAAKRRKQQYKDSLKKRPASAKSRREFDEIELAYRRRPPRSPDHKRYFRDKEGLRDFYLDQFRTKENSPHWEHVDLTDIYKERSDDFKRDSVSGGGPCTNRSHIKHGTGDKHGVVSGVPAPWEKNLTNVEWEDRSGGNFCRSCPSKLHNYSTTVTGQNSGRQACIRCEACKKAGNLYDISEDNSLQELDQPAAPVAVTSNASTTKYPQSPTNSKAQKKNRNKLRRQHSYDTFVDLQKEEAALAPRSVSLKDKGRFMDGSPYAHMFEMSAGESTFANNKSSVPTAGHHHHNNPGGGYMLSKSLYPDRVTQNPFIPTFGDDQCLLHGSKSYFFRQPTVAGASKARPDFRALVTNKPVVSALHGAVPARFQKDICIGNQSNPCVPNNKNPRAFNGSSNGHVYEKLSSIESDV

The test addresses human GluN1/GluN2B NMDA receptors (Homo sapiens, UniProt Q05586+Q13224). The experiment in a line: Cell-based calcium flux (FLIPR) assay on cloned human NR1/NR2B ion channels expressed in mammalian cells. As to conditions: standard assay; human GluN1/GluN2B, calcium flux (FLIPR), glutamate ~EC80. How it is done: Effects of Test Articles on Cloned Human NR1/NR2B Ion Channels Expressed in Mammalian Cells
NMDA receptors are ion channels that are highly permeable to Ca^2+ ions, rendering it possible to monitor NMDA receptor function using cell-based calcium flux assay. In this assay, co-agonists glutamate and glycine are added to cells heterologously expressing human GluN1/GluN2B NMDA receptors to initiate cellular Ca^2+ influx. The time course of the changes in intracellular calcium is measured using a fluorescent dye and a FLIPR (Fluorometric Imaging Plate Reader) device.
Twenty four hours before measurements, the expression of the NMDA receptors in the stable cell line is induced with Tet-On inducible system in the presence of a non-selective NMDA receptor blocker. On the day of the experiment, cell culture media is carefully washed and the cells are loaded with Calcium 5 Dye Kit (Molecular Devices) in dye loading buffer containing 149 mM NaCl, 4 mM KCl, 2 mM CaCl2, and 1.5 mM MgCl2, 10 mM HEPES and 5 mM D-glucose; pH 7.4. After 1 h incubation at the room temperature, the dye is washed away with the assay buffer (149 mM NaCl (standard assay) or 150 mM (HTS assay), 4 mM KCl (standard assay) or 3 mM (HTS assay), 2 mM CaCl2, 0.01 mM EDTA, 10 mM HEPES and 5 mM D-glucose; pH 7.4) In the FLIPR TETRA reader, various concentrations of the test compounds are added to the cells for 5 min while fluorescence is monitored to detect potential agonist activity. Next, co-agonists, glutamate and glycine are added for another 5 minutes. The concentration of glutamate corresponding to ˜EC80 (standard assay) or EC40 (HTS assay) is used to maximize the assay's signal window or the ability to detect NMDA receptor antagonists and negative allosteric modulators, respectively. A saturating concentration (10 μM) of glycine is also present in the assay. […] The fluorescent signal in the presence of test compounds is quantified and normalized to the signal defined by the appropriate control wells.
In general terms: Calcium assays in cells follow changes in intracellular calcium, usually with a dye or a luminescent sensor.
As a reminder, the IC50 is the concentration needed to halve the response being measured. `Fc1ccc(-n2cc(COc3ncc(C(F)(F)F)cn3)nn2)cc1C(F)F` [Example 50, 2-[[1-[3-(Difluoromethyl)-4-fluoro-phenyl]triazol-4-yl]methoxy]-5-(trifluoromethyl)pyrimidine]: the concentration for half-maximal inhibition (IC50) stood at 0.007 µM. Turning to `Cc1cnc(OCc2cn(-c3ccc(F)c(C(F)F)c3)nn2)nc1` [Example 51, 2-[[1-[3-(Difluoromethyl)-4-fluoro-phenyl]triazol-4-yl]methoxy]-5-methyl-pyrimidine], the IC50 was 0.001 µM. `Cc1ccnc(OCc2cn(-c3ccc(F)c(C(F)F)c3)nn2)n1` [Example 52, 2-[[1-[3-(Difluoromethyl)-4-fluoro-phenyl]triazol-4-yl]methoxy]-4-methyl-pyrimidine]: the IC50 stood at 0.008 µM.

Consider `Fc1ccc(-n2cc(COc3ncc(Cl)cn3)nn2)cc1OC(F)F` [Example 61, 5-Chloro-2-[[1-[3-(difluoromethoxy)-4-fluoro-phenyl]triazol-4-yl]methoxy]pyrimidine], for which the IC50 turned out to be 0.003 µM. Turning to `Fc1ccc(-n2cc(COc3ncc(C(F)(F)F)cn3)nn2)cc1OC(F)F` [Example 62, 2-[[1-[3-(Difluoromethoxy)-4-fluoro-phenyl]triazol-4-yl]methoxy]-5-(trifluoromethyl)pyrimidine], the IC50 was 0.007 µM. With `Cc1cnc(OCc2cn(-c3ccc(F)c(OC(F)F)c3)nn2)nc1` [Example 63, 2-[[1-[3-(Difluoromethoxy)-4-fluoro-phenyl]triazol-4-yl]methoxy]-5-methyl-pyrimidine], the IC50 was found to be 0.003 µM. With `Cc1ccnc(OCc2cn(-c3ccc(F)c(OC(F)F)c3)nn2)n1` [Example 64, 2-[[1-[3-(Difluoromethoxy)-4-fluoro-phenyl]triazol-4-yl]methoxy]-4-methyl-pyrimidine], the IC50 is 0.007 µM. With `Fc1ccc(-n2cc(COc3ccc(C(F)(F)F)cn3)nn2)cc1C(F)F` [Example 65, 2-[[1-[3-(Difluoromethyl)-4-fluoro-phenyl]triazol-4-yl]methoxy]-5-(trifluoromethyl)pyridine], the IC50 stood at 0.056 µM.

In the case of `Fc1cnc(OCc2cn(-c3ccc(Cl)c(C(F)F)c3)nn2)nc1` [Example 66, 2-[[1-[4-Chloro-3-(difluoromethyl)phenyl]triazol-4-yl]methoxy]-5-fluoro-pyrimidine], the IC50 was 0.052 µM. `CCc1cnc(OCc2cn(-c3ccc(F)c(C(C)(F)F)c3)nn2)nc1` [Example 67, 2-[[1-[3-(1,1-Difluoroethyl)-4-fluoro-phenyl]triazol-4-yl]methoxy]-5-ethyl-pyrimidine]: the IC50 came to 0.015 µM.

For `COc1cnc(OCc2cn(-c3ccc(F)c(C(C)(F)F)c3)nn2)nc1` [Example 68, 2-[[1-[3-(1,1-Difluoroethyl)-4-fluoro-phenyl]triazol-4-yl]methoxy]-5-methoxy-pyrimidine], the IC50 worked out at 0.007 µM. In the case of `CC(F)(F)c1cc(-n2cc(COc3ncc(Cl)cn3)nn2)ccc1F` [Example 69, 5-Chloro-2-[[1-[3-(1,1-difluoroethyl)-4-fluoro-phenyl]triazol-4-yl]methoxy]pyrimidine], the IC50 was 0.009 µM. On to `CC(C)c1cnc(OCc2cn(-c3ccc(F)c(C(C)(F)F)c3)nn2)nc1` [Example 70, 2-[[1-[3-(1,1-Difluoroethyl)-4-fluoro-phenyl]triazol-4-yl]methoxy]-5-isopropyl-pyrimidine], for which the IC50 was determined as 0.044 µM. Consider `CC(F)(F)c1cc(-n2cc(COc3ncc(C(F)(F)F)cn3)nn2)ccc1F` [Example 71, 2-[[1-[3-(1,1-Difluoroethyl)-4-fluoro-phenyl]triazol-4-yl]methoxy]-5-(trifluoromethyl)pyrimidine], for which the IC50 is 0.04 µM. Regarding `CCc1cnc(OCc2cn(-c3ccc(F)c(C(F)(F)F)c3)nn2)nc1` [Example 72, 5-Ethyl-2-[[1-[4-fluoro-3-(trifluoromethyl)phenyl]triazol-4-yl]methoxy]pyrimidine], the IC50 was found to be 0.01 µM.

Turning to `COc1cnc(OCc2cn(-c3ccc(F)c(C(F)(F)F)c3)nn2)nc1` [Example 73, 2-[[1-[4-Fluoro-3-(trifluoromethyl)phenyl]triazol-4-yl]methoxy]-5-methoxy-pyrimidine], the IC50 was 0.008 µM. Then `Fc1ccc(-n2cc(COc3ncc(Cl)cn3)nn2)cc1C(F)(F)F` [Example 74, 5-Chloro-2-[[1-[4-fluoro-3-(trifluoromethyl)phenyl]triazol-4-yl]methoxy]pyrimidine], with 0.016 µM. In the case of `CC(C)c1cnc(OCc2cn(-c3ccc(F)c(C(F)(F)F)c3)nn2)nc1` [Example 75, 2-[[1-[4-Fluoro-3-(trifluoromethyl)phenyl]triazol-4-yl]methoxy]-5-isopropyl-pyrimidine] it was 0.026 µM; in that of `Fc1ccc(-n2cc(COc3ncc(C(F)(F)F)cn3)nn2)cc1C(F)(F)F` [Example 76, 2-[[1-[4-Fluoro-3-(trifluoromethyl)phenyl]triazol-4-yl]methoxy]-5-(trifluoromethyl)pyrimidine], 0.035 µM; in that of `Cc1cnc(OCc2cn(-c3ccc(F)c(C(C)(F)F)c3)nn2)nc1` [Example 77, 2-[[1-[3-(1,1-Difluoroethyl)-4-fluoro-phenyl]triazol-4-yl]methoxy]-5-methyl-pyrimidine], 0.004 µM. For the molecule `CC(F)(F)c1cc(-n2cc(COc3ncccn3)nn2)ccc1F` [Example 78, 2-[[1-[3-(1,1-Difluoroethyl)-4-fluoro-phenyl]triazol-4-yl]methoxy]pyrimidine], the IC50 was 0.06 µM.

For `Cc1ccnc(OCc2cn(-c3ccc(F)c(C(C)(F)F)c3)nn2)n1` [Example 79, 2-[[1-[3-(1,1-Difluoroethyl)-4-fluoro-phenyl]triazol-4-yl]methoxy]-4-methyl-pyrimidine], the IC50 amounted to 0.007 µM. Turning to `CC(F)(F)c1cc(-n2cc(COc3ncc(F)cn3)nn2)ccc1F` [Example 80, 2-[[1-[3-(1,1-Difluoroethyl)-4-fluoro-phenyl]triazol-4-yl]methoxy]-5-fluoro-pyrimidine], the IC50 was 0.032 µM. Regarding `Cc1cnc(OCc2cn(-c3ccc(F)c(C(F)(F)F)c3)nn2)nc1` [Example 81, 2-[[1-[4-Fluoro-3-(trifluoromethyl)phenyl]triazol-4-yl]methoxy]-5-methyl-pyrimidine], the IC50 turned out to be 0.003 µM. With `Fc1ccc(-n2cc(COc3ncccn3)nn2)cc1C(F)(F)F` [Example 82, 2-[[1-[4-Fluoro-3-(trifluoromethyl)phenyl]triazol-4-yl]methoxy]pyrimidine], the IC50 was found to be 0.126 µM.

Regarding `Cc1ccnc(OCc2cn(-c3ccc(F)c(C(F)(F)F)c3)nn2)n1` [Example 83, 2-[[1-[4-Fluoro-3-(trifluoromethyl)phenyl]triazol-4-yl]methoxy]-4-methyl-pyrimidine], the IC50 was determined as 0.02 µM. Take `Fc1cnc(OCc2cn(-c3ccc(F)c(C(F)(F)F)c3)nn2)nc1` [Example 84, 5-Fuoro-2-[[1-[4-fluoro-3-(trifluoromethyl)phenyl]triazol-4-yl]methoxy]pyrimidine]: the IC50 amounted to 0.072 µM. In the case of `Cc1cnc(OCc2cn(-c3ccc(F)c(Br)c3)nn2)nc1C` [Example 85, 2-[[1-(3-Bromo-4-fluoro-phenyl)triazol-4-yl]methoxy]-4,5-dimethyl-pyrimidine], the IC50 was found to be 0.003 µM. On to `Cc1cnc(OCc2cn(-c3ccc(Cl)c(C(F)F)c3)nn2)nc1C` [Example 86, 2-[[1-[4-Chloro-3-(difluoromethyl)phenyl]triazol-4-yl]methoxy]-4,5-dimethyl-pyrimidine], for which the IC50 was 0.004 µM. Then `COc1cnc(OCc2cn(-c3ccc(Cl)c(OC)c3)nn2)nc1` [Example 87], with 0.012 µM. `COc1cc(-n2cc(COc3ncc(C)cn3)nn2)ccc1Cl` [Example 88, 2-[[1-(4-Chloro-3-methoxy-phenyl)triazol-4-yl]methoxy]-5-methyl-pyrimidine]: the IC50 was determined as 0.019 µM.

`Cc1cnc(OCc2cn(-c3cccc(C(F)F)c3)nn2)nc1` [Example 89, 2-[[1-[3-(Difluoromethyl)phenyl]triazol-4-yl]methoxy]-5-methyl-pyrimidine]: the IC50 was determined as 0.011 µM. Then `COc1cnc(OCc2cn(-c3cccc(C(F)F)c3)nn2)nc1` [Example 90, 2-[[1-[3-(Difluoromethyl)phenyl]triazol-4-yl]methoxy]-5-methoxy-pyrimidine], with 0.012 µM; and `CCc1cnc(OCc2cn(-c3cccc(C(F)F)c3)nn2)nc1` [Example 91, 2-[[1-[3-(Difluoromethyl)phenyl]triazol-4-yl]methoxy]-5-ethyl-pyrimidine], with 0.004 µM. `FC(F)c1cccc(-n2cc(COc3ncc(Cl)cn3)nn2)c1` [Example 92, 5-Chloro-2-[[1-[3-(difluoromethyl)phenyl]triazol-4-yl]methoxy]pyrimidine]: the IC50 turned out to be 0.019 µM. In the case of `FC(F)c1cccc(-n2cc(COc3ncccn3)nn2)c1` [Example 93, 2-[[1-[3-(Difluoromethyl)phenyl]triazol-4-yl]methoxy]pyrimidine] it was 0.493 µM.
